Tests used:
Assay type in all cases: in vivo
Solanum nigrum (SOLNI) = assay: B1 Post-emergence efficacy Test 1; details: post-emergence application, 1000 g/ha, evaluated after 13 days
Procedure: (§1) Seeds of a variety of test species are sown in standard soil in pots:—Solanum nigrum (SOLNI), Amaranthus retoflexus (AMARE), Setaria faberi (SETFA), Alopecurus myosuroides (ALOMY), Echinochloa crus-galli (ECHCG), Ipomoea hederacea (IPOHE), Lolium perenne (LOLPE). After 8 days cultivation (post-emergence) under controlled conditions in a glasshouse (at 24/16° C., day/night; 14 hours light; 65% humidity), the plants are sprayed with an aqueous spray solution derived from the formulation of the technical active ingredient in acetone/water (50:50) solution containing 0.5% Tween 20 (polyoxyethylene sorbitan monolaurate, CAS RN 9005-64-5). Compounds are applied at 1000 g/ha. The test plants are then grown in a glasshouse under controlled conditions in a glasshouse (at 24/16° C., day/night; 14 hours light; 65% humidity) and watered twice daily. After 13 days, the test is evaluated for the percentage damage caused to the plant. The biological activities are assessed on a five point scale (5=80-100%; 4=60-79%; 3=40-59%; 2=20-39%; 1=0-19%). A blank value in the table is indicative that the compound was not tested on that species.

[1] = tested on: Ipomoea hederacea (IPOHE); assay: B1 Post-emergence efficacy Test 1; details: post-emergence application, 1000 g/ha, evaluated after 13 days
Procedure: as §1

Lolium perenne (LOLPE) = assay: B1 Post-emergence efficacy Test 1; details: post-emergence application, 1000 g/ha, evaluated after 13 days
Procedure: as §1

[2] = tested on: Amaranthus retoflexus (AMARE); assay: B1 Post-emergence efficacy Test 1; details: post-emergence application, 1000 g/ha, evaluated after 13 days
Procedure: as §1

Setaria faberi (SETFA) = assay: B1 Post-emergence efficacy Test 1; details: post-emergence application, 1000 g/ha, evaluated after 13 days
Procedure: as §1

[3] = tested on: Echinochloa crus-galli (ECHCG); assay: B1 Post-emergence efficacy Test 1; details: post-emergence application, 1000 g/ha, evaluated after 13 days
Procedure: as §1

[4] = tested on: warm season plant species; assay: B2 Post-emergence efficacy Test 2, warm season plant species; details: 15 days after application, 0-100 scale, 0=no damage, 100=total kill; for Herbicidal activity, ABUTH: Abutilon theophrasti; for Herbicidal activity, AMARE: Amaranthus retroflexus; for Herbicidal activity, BIDPI: Bidens pilosa; for Herbicidal activity, BRAPL: Brachiaria plantaginea; for Herbicidal activity, DIGSA: Digitaria sanguinalis; for Herbicidal activity, ECHCG: Echinochloa crus galli; for Herbicidal activity, ELEIN: Eleisine indica; for Herbicidal activity, EPHHL: Euphorbia hetrophylla; for Herbicidal activity, GLXMA: Glycine max; for Herbicidal activity, IPOHE: Ipomoea hederacea; for Herbicidal activity, ORYSA: Orysa sativa; for Herbicidal activity, PANMI: Panicum miliaceum; for Herbicidal activity, SETFA: Setaria faberi; for Herbicidal activity, SIDSP: Sida spinosa; for Herbicidal activity, SORVU: Sorghum bicolour; for Herbicidal activity, XANST: Xanthium strumarium; for Herbicidal activity, ZEAMX: Zea mays
Procedure: Seeds of a variety of test species (see Table B1) were sown in standard soil in pots. After cultivation for 12 days (post-emergence) under controlled conditions in a glasshouse (at 24/18° C. or 20/16° C., at day/night; 16 hours light; 65% humidity), the plants were sprayed with an aqueous spray solution derived from the formulation of the technical active ingredient dissolved in IF50 (see Table B2 for composition) and adjuvant (Genapol XO80) was added to the spray solution at a rate of 0.2% v/v. [table] [table] After application, the test plants were grown in a glasshouse under controlled conditions (as above) and watered twice daily. Herbicidal activity was evaluated 15 days after application on a 0-100 scale. The results, where 0=no damage to test plant and 100=total kill of test plant are shown below in Tables 6 to 9.

With `Cc1nn(C)c(=O)c(-c2c(F)ccc(Cl)c2CCc2ccc(C#N)cc2)c1O` [Compound 1.024] the “percentage damage caused to the plant, five point scale, SOLNI” value (Solanum nigrum (SOLNI)) was 5 (5=80-100%), the “percentage damage caused to the plant, five point scale, IPOHE” value [1] was 5 (5=80-100%) and the “percentage damage caused to the plant, five point scale, LOLPE” value (Lolium perenne (LOLPE)) was 5 (5=80-100%). For the same compound, the “percentage damage caused to the plant, five point scale, AMARE” value [2] was 5 (5=80-100%), the “percentage damage caused to the plant, five point scale, SETFA” value (Setaria faberi (SETFA)) was 5 (5=80-100%) and the “percentage damage caused to the plant, five point scale, ECHCG” value [3] was 5 (5=80-100%). For the same compound, the “Herbicidal activity, ABUTH” value ([4]; 15 g/Ha) was 90, the “Herbicidal activity, ABUTH” value ([4]; 30 g/Ha) was 90 and the “Herbicidal activity, ABUTH” value ([4]; 60 g/Ha) was 100. The “Herbicidal activity, ABUTH” value ([4]; 125 g/Ha) was 100, the “Herbicidal activity, ABUTH” value ([4]; 250 g/Ha) was 100 and the “Herbicidal activity, ABUTH” value ([4]; 500 g/Ha) was 100. For the same compound, the “Herbicidal activity, AMARE” value ([4]; 15 g/Ha) was 80, the “Herbicidal activity, AMARE” value ([4]; 30 g/Ha) was 90 and the “Herbicidal activity, AMARE” value ([4]; 60 g/Ha) was 90. The “Herbicidal activity, AMARE” value ([4]; 125 g/Ha) was 100, the “Herbicidal activity, AMARE” value ([4]; 250 g/Ha) was 100 and the “Herbicidal activity, AMARE” value ([4]; 500 g/Ha) was 100. The “Herbicidal activity, BIDPI” value ([4]; 15 g/Ha) was 80, the “Herbicidal activity, BIDPI” value ([4]; 30 g/Ha) was 80 and the “Herbicidal activity, BIDPI” value ([4]; 60 g/Ha) was 80. The “Herbicidal activity, BIDPI” value ([4]; 125 g/Ha) was 80, the “Herbicidal activity, BIDPI” value ([4]; 250 g/Ha) was 80 and the “Herbicidal activity, BIDPI” value ([4]; 500 g/Ha) was 90. The “Herbicidal activity, BRAPL” value ([4]; 15 g/Ha) was 30, the “Herbicidal activity, BRAPL” value ([4]; 30 g/Ha) was 60 and the “Herbicidal activity, BRAPL” value ([4]; 60 g/Ha) was 70. The “Herbicidal activity, BRAPL” value ([4]; 125 g/Ha) was 70, the “Herbicidal activity, BRAPL” value ([4]; 250 g/Ha) was 70 and the “Herbicidal activity, BRAPL” value ([4]; 500 g/Ha) was 90. For the same compound, the “Herbicidal activity, DIGSA” value ([4]; 15 g/Ha) was 0, the “Herbicidal activity, DIGSA” value ([4]; 30 g/Ha) was 20 and the “Herbicidal activity, DIGSA” value ([4]; 60 g/Ha) was 40. The “Herbicidal activity, DIGSA” value ([4]; 125 g/Ha) was 80, the “Herbicidal activity, DIGSA” value ([4]; 250 g/Ha) was 90 and the “Herbicidal activity, DIGSA” value ([4]; 500 g/Ha) was 90. The “Herbicidal activity, ECHCG” value ([4]; 15 g/Ha) was 70, the “Herbicidal activity, ECHCG” value ([4]; 30 g/Ha) was 80 and the “Herbicidal activity, ECHCG” value ([4]; 60 g/Ha) was 80. For the same compound, the “Herbicidal activity, ECHCG” value ([4]; 125 g/Ha) was 90, the “Herbicidal activity, ECHCG” value ([4]; 250 g/Ha) was 90 and the “Herbicidal activity, ECHCG” value ([4]; 500 g/Ha) was 100. The “Herbicidal activity, ELEIN” value ([4]; 15 g/Ha) was 0, the “Herbicidal activity, ELEIN” value ([4]; 30 g/Ha) was 40 and the “Herbicidal activity, ELEIN” value ([4]; 60 g/Ha) was 40. The “Herbicidal activity, ELEIN” value ([4]; 125 g/Ha) was 60, the “Herbicidal activity, ELEIN” value ([4]; 250 g/Ha) was 80 and the “Herbicidal activity, ELEIN” value ([4]; 500 g/Ha) was 80. For the same compound, the “Herbicidal activity, EPHHL” value ([4]; 15 g/Ha) was 70, the “Herbicidal activity, EPHHL” value ([4]; 30 g/Ha) was 90 and the “Herbicidal activity, EPHHL” value ([4]; 60 g/Ha) was 90. For the same compound, the “Herbicidal activity, EPHHL” value ([4]; 125 g/Ha) was 90, the “Herbicidal activity, EPHHL” value ([4]; 250 g/Ha) was 100 and the “Herbicidal activity, EPHHL” value ([4]; 500 g/Ha) was 100. The “Herbicidal activity, GLXMA” value ([4]; 15 g/Ha) was 70, the “Herbicidal activity, GLXMA” value ([4]; 30 g/Ha) was 80 and the “Herbicidal activity, GLXMA” value ([4]; 60 g/Ha) was 90. The “Herbicidal activity, GLXMA” value ([4]; 125 g/Ha) was 90, the “Herbicidal activity, GLXMA” value ([4]; 250 g/Ha) was 100 and the “Herbicidal activity, GLXMA” value ([4]; 500 g/Ha) was 100. The “Herbicidal activity, IPOHE” value ([4]; 30 g/Ha) was 100, the “Herbicidal activity, IPOHE” value ([4]; 60 g/Ha) was 100 and the “Herbicidal activity, IPOHE” value ([4]; 125 g/Ha) was 100. The “Herbicidal activity, IPOHE” value ([4]; 250 g/Ha) was 100, the “Herbicidal activity, IPOHE” value ([4]; 500 g/Ha) was 100 and the “Herbicidal activity, ORYSA” value ([4]; 15 g/Ha) was 0. For the same compound, the “Herbicidal activity, ORYSA” value ([4]; 30 g/Ha) was 0, the “Herbicidal activity, ORYSA” value ([4]; 60 g/Ha) was 0 and the “Herbicidal activity, ORYSA” value ([4]; 125 g/Ha) was 0. The “Herbicidal activity, ORYSA” value ([4]; 250 g/Ha) was 20, the “Herbicidal activity, ORYSA” value ([4]; 500 g/Ha) was 40 and the “Herbicidal activity, PANMI” value ([4]; 15 g/Ha) was 0. For the same compound, the “Herbicidal activity, PANMI” value ([4]; 30 g/Ha) was 70, the “Herbicidal activity, PANMI” value ([4]; 60 g/Ha) was 80 and the “Herbicidal activity, PANMI” value ([4]; 125 g/Ha) was 90. The “Herbicidal activity, PANMI” value ([4]; 250 g/Ha) was 90, the “Herbicidal activity, PANMI” value ([4]; 500 g/Ha) was 100 and the “Herbicidal activity, SETFA” value ([4]; 15 g/Ha) was 20. For the same compound, the “Herbicidal activity, SETFA” value ([4]; 30 g/Ha) was 70, the “Herbicidal activity, SETFA” value ([4]; 60 g/Ha) was 80 and the “Herbicidal activity, SETFA” value ([4]; 125 g/Ha) was 90. The “Herbicidal activity, SETFA” value ([4]; 250 g/Ha) was 90, the “Herbicidal activity, SETFA” value ([4]; 500 g/Ha) was 100 and the “Herbicidal activity, SIDSP” value ([4]; 15 g/Ha) was 80. For the same compound, the “Herbicidal activity, SIDSP” value ([4]; 30 g/Ha) was 90, the “Herbicidal activity, SIDSP” value ([4]; 60 g/Ha) was 90 and the “Herbicidal activity, SIDSP” value ([4]; 125 g/Ha) was 100. The “Herbicidal activity, SIDSP” value ([4]; 250 g/Ha) was 100, the “Herbicidal activity, SIDSP” value ([4]; 500 g/Ha) was 100 and the “Herbicidal activity, SORVU” value ([4]; 15 g/Ha) was 0. For the same compound, the “Herbicidal activity, SORVU” value ([4]; 30 g/Ha) was 10, the “Herbicidal activity, SORVU” value ([4]; 60 g/Ha) was 70 and the “Herbicidal activity, SORVU” value ([4]; 125 g/Ha) was 80. The “Herbicidal activity, SORVU” value ([4]; 250 g/Ha) was 90, the “Herbicidal activity, SORVU” value ([4]; 500 g/Ha) was 100 and the “Herbicidal activity, XANST” value ([4]; 60 g/Ha) was 80. The “Herbicidal activity, XANST” value ([4]; 125 g/Ha) was 80, the “Herbicidal activity, XANST” value ([4]; 500 g/Ha) was 100 and the “Herbicidal activity, ZEAMX” value ([4]; 15 g/Ha) was 0. The “Herbicidal activity, ZEAMX” value ([4]; 30 g/Ha) was 10, the “Herbicidal activity, ZEAMX” value ([4]; 60 g/Ha) was 20 and the “Herbicidal activity, ZEAMX” value ([4]; 125 g/Ha) was 40. For the same compound, the “Herbicidal activity, ZEAMX” value ([4]; 250 g/Ha) was 70 and the “Herbicidal activity, ZEAMX” value ([4]; 500 g/Ha) was 100.

From patent US12162840B2, “Herbicidal compositions” (SYNGENTA PARTICIPATIONS AG, priority 2018, dated 2024)
